Experimental data as given in US11230526B1, “Cylcoalkenyl derivatives useful as agonists of the GPR120 and/or GPR40 receptors” (Janssen Pharmaceutica NV, priority 2018, dated 2022).

Assays:
Assay type in all cases: cell-based
Human GPR120 short form = biological target: T1, Human GPR120 short form (Homo sapiens, UniProt Q5NUL3); assay: Human GPR120 calcium flux assay, Procedure Calcium B (4200 cells/well)
T1 construct: expressed in transfected cells
T1 sequence (Q5NUL3 1-361): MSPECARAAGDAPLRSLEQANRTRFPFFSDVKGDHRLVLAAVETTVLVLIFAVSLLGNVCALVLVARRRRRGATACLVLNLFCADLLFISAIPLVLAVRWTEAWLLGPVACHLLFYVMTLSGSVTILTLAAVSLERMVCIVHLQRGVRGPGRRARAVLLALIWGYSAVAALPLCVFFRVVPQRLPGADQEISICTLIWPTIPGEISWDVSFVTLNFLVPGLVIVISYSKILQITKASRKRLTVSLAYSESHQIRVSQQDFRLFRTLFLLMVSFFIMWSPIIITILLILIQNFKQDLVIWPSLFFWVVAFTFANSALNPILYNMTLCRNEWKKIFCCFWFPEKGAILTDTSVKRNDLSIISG
Procedure, shortened: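 Agonist EC50 came from a four-parameter fit of RFU (Fmax−Fmin) read over 300 s on FLIPR. Cells were HEK293 stably transfected with human GPR120 (NM_001195755.1) at 4200 per well, serum-starved 1 h and loaded with Fluo-4 NW dye with probenecid before ligand addition.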

human GPR40 = biological target: T2, human GPR40 (Homo sapiens, UniProt O14842); assay: GPR40 calcium flux assay, human GPR40; settings: HEK293 cells stably expressing GPR40; table does not say human or rat
T2 construct: expressed in transfected cells
T2 sequence (O14842 whole entry): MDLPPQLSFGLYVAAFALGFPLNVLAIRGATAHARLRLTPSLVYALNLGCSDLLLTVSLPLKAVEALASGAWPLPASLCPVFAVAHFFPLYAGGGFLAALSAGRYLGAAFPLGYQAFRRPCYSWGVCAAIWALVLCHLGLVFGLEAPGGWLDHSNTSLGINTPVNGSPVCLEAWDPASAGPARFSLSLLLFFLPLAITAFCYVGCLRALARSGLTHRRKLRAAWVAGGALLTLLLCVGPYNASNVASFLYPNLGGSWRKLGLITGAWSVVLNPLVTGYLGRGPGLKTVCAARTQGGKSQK
Procedure, shortened: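 Cells preincubated 1 h at 37° C. in HBSS, 20 mM HEPES, 0.1% BSA, then Fluo 8 calcium dye 30 min at 37° C. and 15 min at room temperature.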

[1] = biological target: T3, long form of human GPR120 (Homo sapiens, UniProt Q5NUL3); assay: Human GPR120 DiscoveRx PathHunter Beta-Arrestin assay, Procedure β-arrestin A
T3 construct: host or cells: PathHunter CHO-K1 GPR120 β-Arrestin Cell Line
T3 sequence (Q5NUL3 1-377 isoform Q5NUL3-1): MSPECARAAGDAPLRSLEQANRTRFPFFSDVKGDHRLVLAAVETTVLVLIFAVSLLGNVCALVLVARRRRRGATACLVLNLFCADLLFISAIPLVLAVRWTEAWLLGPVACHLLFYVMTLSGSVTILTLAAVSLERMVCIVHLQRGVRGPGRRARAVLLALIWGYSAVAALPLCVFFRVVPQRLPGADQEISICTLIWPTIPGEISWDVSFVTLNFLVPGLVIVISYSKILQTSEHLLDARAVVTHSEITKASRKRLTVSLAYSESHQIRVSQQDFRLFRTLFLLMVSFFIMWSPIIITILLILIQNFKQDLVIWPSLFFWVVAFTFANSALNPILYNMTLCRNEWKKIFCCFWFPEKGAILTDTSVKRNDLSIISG
T3 sequence (P32121 whole entry partner): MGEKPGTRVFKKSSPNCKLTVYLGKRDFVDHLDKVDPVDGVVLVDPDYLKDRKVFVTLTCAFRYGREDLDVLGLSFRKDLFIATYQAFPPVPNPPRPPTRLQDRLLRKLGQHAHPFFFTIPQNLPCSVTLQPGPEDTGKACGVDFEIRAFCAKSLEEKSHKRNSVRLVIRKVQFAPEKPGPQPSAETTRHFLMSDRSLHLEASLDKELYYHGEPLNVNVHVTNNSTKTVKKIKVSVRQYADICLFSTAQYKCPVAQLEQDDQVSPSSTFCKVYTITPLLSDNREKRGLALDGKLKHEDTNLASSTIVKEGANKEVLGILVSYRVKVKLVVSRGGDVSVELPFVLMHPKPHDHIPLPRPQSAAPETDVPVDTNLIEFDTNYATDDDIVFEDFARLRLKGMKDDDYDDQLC
Procedure, shortened: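 PathHunter CHO-K1 cells expressing long-form human GPR120 (3000/well) were seeded overnight. They were then preincubated 60 min in HBSS with 20 mM HEPES and 0.1% BSA, pH 7.4, and exposed to compound for 90 min at 37 °C. β-Arrestin recruitment was read as β-gal complementation luminescence. EC50 came from % activity versus positive control, Hill slope fixed at 1.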

## COc1ncc(C2=C(COc3ccc(CCC(=O)O)cc3C)CCC2)cc1F [Compound 222, 3-[4-[[2-(5-fluoro-6-methoxy-3-pyridyl)cyclopenten-1-yl]methoxy]-3-methyl-phenyl]Propanoic Acid]
Human GPR120 short form
  EC50: 57 nM
Human GPR40
  EC50: > 5000 nM
[1]
  EC50: 132 nM

## COc1ncc(C2=C(COc3ccc(CCC(=O)O)c(C)c3C)CCC2)cc1F [Compound 223, 3-[4-[[2-(5-fluoro-6-methoxy-3-pyridyl)cyclopenten-1-yl]methoxy]-2,3-dimethyl-phenyl]Propanoic Acid]
Human GPR120 short form
  EC50: 156 nM
Human GPR40
  EC50: > 5000 nM
[1]
  EC50: 227 nM

## COc1ncc(C2=C(COc3c(F)cc(CCC(=O)O)cc3F)CCC2)cc1F [Compound 224, 3-[3,5-difluoro-4-[[2-(5-fluoro-6-methoxy-3-pyridyl)cyclopenten-1-yl]methoxy]phenyl]Propanoic Acid]
Human GPR120 short form
  EC50: 285 nM
Human GPR40
  EC50: > 5000 nM
[1]
  EC50: 231 nM

## CCOc1ccc(C2=C(COc3ccc(CCC(=O)O)cc3C)CCC2)cn1 [Compound 225, 3-[4-[[2-(6-ethoxy-3-pyridyl)cyclopenten-1-yl]methoxy]-3-methyl-phenyl]Propanoic Acid]
Human GPR120 short form
  EC50: 530 nM
Human GPR40
  EC50: > 5000 nM
[1]
  EC50: 588 nM

## CCOc1ccc(C2=C(COc3c(F)cc(CCC(=O)O)cc3F)CCC2)cn1 [Compound 226, 3-[4-[[2-(6-ethoxy-3-pyridyl)cyclopenten-1-yl]methoxy]-3,5-difluoro-phenyl]Propanoic Acid]
Human GPR120 short form
  EC50: 724 nM
Human GPR40
  EC50: > 5000 nM
[1]
  EC50: 1290 nM

## O=C(O)CCc1ccc(OCC2=C(c3ccc(F)cc3)CC(F)(F)C2)cc1 [Compound 228, 3-[4-[[4,4-difluoro-2-(4-fluorophenyl)cyclopenten-1-yl]methoxy]phenyl]Propanoic Acid]
Human GPR120 short form
  EC50: 124 nM
Human GPR40
  EC50: 4930 nM
[1]
  EC50: 238 nM

## O=C(O)CCc1ccc(OCC2=C(c3ccc(F)cc3)CCC(F)(F)C2)cc1C(F)(F)F [Compound 489, 3-[4-[[5,5-difluoro-2-(4-fluorophenyl)cyclohexen-1-yl]methoxy]-2-(trifluoromethyl)phenyl]Propanoic Acid]
Human GPR120 short form
  EC50: 173 nM
Human GPR40
  EC50: 825 nM
[1]
  EC50: 312 nM

## Cc1c(CCC(=O)O)ccc(OCC2=C(c3ccc(F)cc3)CCC(F)(F)C2)c1C [Compound 497, 3-[4-[[5,5-difluoro-2-(4-fluorophenyl)cyclohexen-1-yl]methoxy]-2,3-dimethyl-phenyl]Propanoic Acid]
Human GPR120 short form
  EC50: 75 nM
Human GPR40
  EC50: > 5000 nM
[1]
  EC50: 122 nM

## Cc1cc(CCC(=O)O)ccc1OCC1=C(c2ccc(F)cc2)CCC(F)(F)C1 [Compound 498, 3-[4-[[5,5-difluoro-2-(4-fluorophenyl)cyclohexen-1-yl]methoxy]-3-methyl-phenyl]Propanoic Acid]
Human GPR120 short form
  EC50: 96 nM
Human GPR40
  EC50: > 5000 nM
[1]
  EC50: 219 nM

## O=C(O)CCc1ccc(OCC2=C(c3ccc(F)cc3)CCC(F)(F)C2)cc1 [Compound 499, 3-[4-[[5,5-difluoro-2-(4-fluorophenyl)cyclohexen-1-yl]methoxy]phenyl]Propanoic Acid]
Human GPR120 short form
  EC50: 215 nM
Human GPR40
  EC50: > 5000 nM
[1]
  EC50: 132 nM

## Cc1c(CCC(=O)O)ccc(OCC2=C(c3ccc(Cl)cc3)CCC(C(C)C)C2)c1C (stereo not drawn) [Compound 501, 3-[4-[[2-(4-chlorophenyl)-5-isopropyl-cyclohexen-1-yl]methoxy]-2,3-dimethyl-phenyl]Propanoic Acid]
Human GPR120 short form
  EC50: 364 nM
Human GPR40
  EC50: > 5000 nM
[1]
  EC50: 155 nM

## CCC1CCC(c2ccc(Cl)cc2)=C(COc2ccc(CCC(=O)O)c(C)c2C)C1 (stereo not drawn) [Compound 502, 3-[4-[[2-(4-chlorophenyl)-5-ethyl-cyclohexen-1-yl]methoxy]-2,3-dimethyl-phenyl]Propanoic Acid]
Human GPR120 short form
  EC50: 147 nM
Human GPR40
  EC50: > 5000 nM
[1]
  EC50: 192 nM

## Cc1cc(OCC2=C(c3ccc(F)cc3)CCC(F)(F)C2)ccc1CCC(=O)O [Compound 518, 3-[4-[[5,5-difluoro-2-(4-fluorophenyl)cyclohexen-1-yl]methoxy]-2-methyl-phenyl]Propanoic Acid]
Human GPR120 short form
  EC50: 255 nM
Human GPR40
  EC50: 3750 nM
[1]
  EC50: 639 nM

## Cc1cc(OCC2=C(c3ccc(Cl)cc3)CCC(F)(F)C2)ccc1CCC(=O)O [Compound 519, 3-[4-[[2-(4-chlorophenyl)-5,5-difluoro-cyclohexen-1-yl]methoxy]-2-methyl-phenyl]Propanoic Acid]
Human GPR120 short form
  EC50: 222 nM
Human GPR40
  EC50: 3310 nM
[1]
  EC50: 772 nM

## CCC1CCC(COc2ccc(CCC(=O)O)c(C)c2C)=C(c2ccc(Cl)cc2)C1 (stereo not drawn) [Compound 522, 3-[4-[[2-(4-chlorophenyl)-4-ethyl-cyclohexen-1-yl]methoxy]-2,3-dimethyl-phenyl]Propanoic Acid]
Human GPR120 short form
  EC50: 714 nM
Human GPR40
  EC50: > 5000 nM
[1]
  EC50: 853 nM

## Cc1ccc(C2=C(COc3c(F)cc(CCC(=O)O)cc3F)CC(F)(F)CC2)cc1F [Compound 525, 3-[4-[[5,5-difluoro-2-(3-fluoro-4-methyl-phenyl)cyclohexen-1-yl]methoxy]-3,5-difluoro-phenyl]Propanoic Acid]
Human GPR120 short form
  EC50: 165 nM
Human GPR40
  EC50: 4030 nM
[1]
  EC50: 121 nM

## Cc1ccc(C2=C(COc3ccc(CCC(=O)O)c(C)c3C)CC(F)(F)CC2)cc1F [Compound 529, 3-[4-[[5,5-difluoro-2-(3-fluoro-4-methyl-phenyl)cyclohexen-1-yl]methoxy]-2,3-dimethyl-phenyl]Propanoic Acid]
Human GPR120 short form
  EC50: 156 nM
Human GPR40
  EC50: > 5000 nM
[1]
  EC50: 136 nM

## Cc1ccc(C2=C(COc3ccc(CCC(=O)O)cc3C)CC(F)(F)CC2)cc1F [Compound 530, 3-[4-[[5,5-difluoro-2-(3-fluoro-4-methyl-phenyl)cyclohexen-1-yl]methoxy]-3-methyl-phenyl]Propanoic Acid]
Human GPR120 short form
  EC50: 68 nM
Human GPR40
  EC50: > 5000 nM
[1]
  EC50: 73 nM

## Cc1cc(CCC(=O)O)ccc1OCC1=C(c2ccc(F)c(F)c2)CCC(F)(F)C1 [Compound 532, 3-[4-[[2-(3,4-difluorophenyl)-5,5-difluoro-cyclohexen-1-yl]methoxy]-3-methyl-phenyl]Propanoic Acid]
Human GPR120 short form
  EC50: 133 nM
Human GPR40
  EC50: > 5000 nM
[1]
  EC50: 187 nM

## O=C(O)CCc1cc(F)c(OCC2=C(c3ccc(F)c(F)c3)CCC(F)(F)C2)c(F)c1 [Compound 533, 3-[4-[[2-(3,4-difluorophenyl)-5,5-difluoro-cyclohexen-1-yl]methoxy]-3,5-difluoro-phenyl]Propanoic Acid]
Human GPR120 short form
  EC50: 309 nM
Human GPR40
  EC50: > 5000 nM
[1]
  EC50: 532 nM

## Cc1c(CCC(=O)O)ccc(OCC2=C(c3ccc(F)cc3F)CCC(F)(F)C2)c1C [Compound 534, 3-[4-[[2-(2,4-difluorophenyl)-5,5-difluoro-cyclohexen-1-yl]methoxy]-2,3-dimethyl-phenyl]Propanoic Acid]
Human GPR120 short form
  EC50: 96 nM
Human GPR40
  EC50: > 5000 nM
[1]
  EC50: 157 nM

## Cc1cc(CCC(=O)O)ccc1OCC1=C(c2ccc(F)cc2F)CCC(F)(F)C1 [Compound 535, 3-[4-[[2-(2,4-difluorophenyl)-5,5-difluoro-cyclohexen-1-yl]methoxy]-3-methyl-phenyl]Propanoic Acid]
Human GPR120 short form
  EC50: 120 nM
Human GPR40
  EC50: > 5000 nM
[1]
  EC50: 108 nM

## O=C(O)CCc1cc(F)c(OCC2=C(c3ccc(F)cc3F)CCC(F)(F)C2)c(F)c1 [Compound 536, 3-[4-[[2-(2,4-difluorophenyl)-5,5-difluoro-cyclohexen-1-yl]methoxy]-3,5-difluoro-phenyl]Propanoic Acid]
Human GPR120 short form
  EC50: 207 nM
Human GPR40
  EC50: > 5000 nM
[1]
  EC50: 215 nM

## Cc1c(CCC(=O)O)ccc(OCC2=C(c3ccccc3)CCC(F)(F)C2)c1C [Compound 537, 3-[4-[(5,5-difluoro-2-phenyl-cyclohexen-1-yl)methoxy]-2,3-dimethyl-phenyl]Propanoic Acid]
Human GPR120 short form
  EC50: 83 nM
Human GPR40
  EC50: > 5000 nM
[1]
  EC50: 161 nM

## O=C(O)CCc1cc(F)c(OCC2=C(c3ccccc3)CCC(F)(F)C2)c(F)c1 [Compound 539, 3-[4-[(5,5-difluoro-2-phenyl-cyclohexen-1-yl)methoxy]-3,5-difluoro-phenyl]Propanoic Acid]
Human GPR120 short form
  EC50: 192 nM
Human GPR40
  EC50: > 5000 nM
[1]
  EC50: 292 nM

## Cc1cc(CCC(=O)O)ccc1OCC1=C(c2ccc(Cl)s2)CCC(F)(F)C1 [Compound 542, 3-[4-[[2-(5-chloro-2-thienyl)-5,5-difluoro-cyclohexen-1-yl]methoxy]-3-methyl-phenyl]Propanoic Acid]
Human GPR120 short form
  EC50: 94 nM
Human GPR40
  EC50: 2860 nM
[1]
  EC50: 182 nM

## O=C(O)CCc1cc(F)c(OCC2=C(c3ccc(Cl)s3)CCC(F)(F)C2)c(F)c1 [Compound 543, 3-[4-[[2-(5-chloro-2-thienyl)-5,5-difluoro-cyclohexen-1-yl]methoxy]-3,5-difluoro-phenyl]Propanoic Acid]
Human GPR120 short form
  EC50: 191 nM
Human GPR40
  EC50: > 5000 nM
[1]
  EC50: 287 nM
